Experimental data as given in the supplement of paper PMC11061612.

Experiments:
[1] = system: NCI-H1975 (Lung Adenocarcinoma); experiment: Bliss excess, mean over the matrix (fraction); higher = more synergy
Method in brief: (§1)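 Cell lines in DMEM/F12 or RPMI with 10% FBS were plated in 1536-well plates, held 24 hours at 37°C, 5% CO2, then given two-drug dose matrices for 72 hours (DMSO typically 0.2%). Viability was read by CellTiter-Glo 2.0 luminescence and scaled as inhibition from 0 (vehicle wells) to 1 (blank wells). Combination Emax is the second-highest inhibition in the matrix; Bliss excess is observed combination effect minus expected EA + EB − EA·EB, EA and EB being single-agent effects.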

[2] = system: NCI-H1648 (Lung Adenocarcinoma); experiment: as above
Method in brief: as §1

[3] = system: SNU-1 (Gastric Carcinoma); experiment: as above
Method in brief: as §1

SK-MEL-24 (Melanoma) = experiment: as above
Method in brief: as §1

[4] = system: JURL-MK1 (Chronic Myelogenous Leukemia); experiment: as above
Method in brief: as §1

[5] = system: NCI-H2009 (Lung Adenocarcinoma); experiment: as above
Method in brief: as §1

[6] = system: RPMI-8402 (T-Lymphoblastic Leukemia); experiment: as above
Method in brief: as §1

[7] = system: SW1463 (Colorectal Carcinoma); experiment: combination Emax (second highest fraction inhibited in the dose matrix, 72 h); higher = more inhibition; extreme values may be limits of the assay
Method in brief: as §1

[8] = system: CAL-85-1 (Breast Carcinoma); experiment: as above
Method in brief: as §1

[9] = system: NCI-H2023 (Non-Small Cell Lung Carcinoma); experiment: as above
Method in brief: as §1

[10] = system: MRK-nu-1 (Breast Carcinoma); experiment: as above
Method in brief: as §1

[11] = system: SBC-3 (Small Cell Lung Carcinoma); experiment: as above
Method in brief: as §1

MG-63 (Osteosarcoma) = experiment: as above
Method in brief: as §1

[12] = system: NCI-H1648 (Lung Adenocarcinoma); experiment: as above
Method in brief: as §1

[13] = system: SNU-1 (Gastric Carcinoma); experiment: as above
Method in brief: as §1

[14] = system: JJN-3 (Plasma Cell Myeloma); experiment: as above
Method in brief: as §1

[15] = system: NCI-H1048 (Small Cell Lung Carcinoma); experiment: as above
Method in brief: as §1

[16] = system: OVKATE (Ovarian Carcinoma); experiment: as above
Method in brief: as §1

A375 (Melanoma) = experiment: as above
Method in brief: as §1

[17] = system: HT-3 (Cervical Carcinoma); experiment: as above
Method in brief: as §1
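Wherever Bliss excess, mean over the matrix is given: after 72 h of two-drug dosing.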

Row | SMILES | Bliss excess [1] | Bliss excess [2] | Bliss excess [3] | Bliss excess (SK-MEL-24 (Melanoma)) | Bliss excess [4] | Bliss excess [5] | Bliss excess [6] | combination Emax [7] | combination Emax [8] | combination Emax [9] | combination Emax [10] | combination Emax [11] | combination Emax (MG-63 (Osteosarcoma)) | combination Emax [12] | combination Emax [13] | combination Emax [14] | combination Emax [15] | combination Emax [16] | combination Emax (A375 (Melanoma)) | combination Emax [17]
1 | Cn1cnc2c(F)c(Nc3ccc(Br)cc3Cl)c(C(=O)NOCCO)cc21 [Selumetinib] + C=CCn1c(=O)c2cnc(Nc3ccc(N4CCN(C)CC4)cc3)nc2n1-c1cccc(C(C)(C)O)n1 [AZD1775] (first compound max 10 µM, partner max 1 µM) | -0.0318 | -0.0704 | -0.005 | -0.0315 | 0.0067 | 0.0308 | -0.0344 | 0.665 | 0.474 | 0.281 | 0.0295 | 0.269 | 0.394 | 0.621 | 0.766 | 0.67 | 0.862 | 0.173 | 0.755 | 0.195
2 | Cn1cnc2c(F)c(Nc3ccc(Br)cc3Cl)c(C(=O)NOCCO)cc21 [Selumetinib] + CC(C)n1c(=O)n(C)c2cnc3cc(F)c(-c4ccc(OCCCN5CCCCC5)nc4)cc3c21 [AZD1390] (first compound max 10 µM, 7x7, partner max 0.3 µM) | -0.0473 | -0.0418 | 0.025 | -0.014 | -0.0296 | -0.0254 | -0.039 | 0.702 | 0.44 | 0.161 | 0.35 | 0.152 | 0.305 | 0.512 | 0.384 | 0.281 | 0.101 | 0.179 | 0.684 | 0.105
3 | Cn1cnc2c(F)c(Nc3ccc(Br)cc3Cl)c(C(=O)NOCCO)cc21 [Selumetinib] + CCN(CCO)CCCOc1ccc2c(Nc3cc(CC(=O)Nc4cccc(F)c4)[nH]n3)ncnc2c1 [AZD2811] (first compound max 10 µM, 7x7, partner max 1 µM) | 0.0012 | 0.0048 | 0.0767 | -0.0628 | 0.0645 | -0.0059 | 0.0136 | 0.678 | 0.483 | 0.275 | 0.548 | 0.482 | 0.32 | 0.593 | 0.53 | 0.551 | 0.611 | 0.176 | 0.718 | 0.367
4 | Cn1cnc2c(F)c(Nc3ccc(Br)cc3Cl)c(C(=O)NOCCO)cc21 [Selumetinib] + C[C@@H]1COCCN1C2=NC(=NC(=C2)C3(CC3)[S@](=N)(=O)C)C4=C5C=CNC5=NC=C4 [AZD6738] (first compound max 10 µM, 7x7, partner max 10 µM) | 0.0316 | -0.0259 | 0.0537 | 0.0125 | 0.0095 | -0.0313 | -0.0196 | 0.643 | 0.559 | 0.477 | 0.413 | 0.656 | 0.547 | 0.752 | 0.79 | 0.677 | 0.67 | 0.199 | 0.772 | 0.54
5 | CC(=O)Nc1cccc(-n2c(=O)n(C3CC3)c(=O)c3c(Nc4ccc(I)cc4F)n(C)c(=O)c(C)c32)c1 [Trametinib] + Cc1nc(-c2cn3c(n2)-c2ccc(-c4cnn(C(C)(C)C(N)=O)c4)cc2OCC3)n(C(C)C)n1 [Taselisib] (first compound max 1 µM, 7x7, partner max 10 µM) | 0.177 | 0.0655 | 0.202 | 0.012 | -0.0107 | 0.151 | 0.0185 | 0.785 | 0.975 | 0.769 | 0.814 | 0.703 | 0.674 | 1 | 0.769 | 0.532 | 1 | 0.583 | 0.935 | 0.673
6 | CC1(C)CCC(CN2CCN(c3ccc(C(=O)NS(=O)(=O)c4ccc(NCC5CCOCC5)c([N+](=O)[O-])c4)c(Oc4cnc5[nH]ccc5c4)c3)CC2)=C(c2ccc(Cl)cc2)C1 [Venetoclax] + C1CN(CCC1(C(=O)N[C@@H](CCO)C2=CC=C(C=C2)Cl)N)C3=NC=NC4=C3C=CN4 [Capivasertib] (first compound max 1 µM, 7x7, partner max 3 µM) | -0.0362 | -0.0405 | -0.0535 | -0.0695 | -0.0259 | -0.0299 | -0.0544 | 0.11 | 0.161 | 0.424 | 0.288 | 0.543 | 0.317 | 0.45 | 0.256 | 0.305 | 0.679 | 0.199 | 0.175 | 0.0784
7 | CC1(C)CCC(CN2CCN(c3ccc(C(=O)NS(=O)(=O)c4ccc(NCC5CCOCC5)c([N+](=O)[O-])c4)c(Oc4cnc5[nH]ccc5c4)c3)CC2)=C(c2ccc(Cl)cc2)C1 [Venetoclax] + C=CCn1c(=O)c2cnc(Nc3ccc(N4CCN(C)CC4)cc3)nc2n1-c1cccc(C(C)(C)O)n1 [AZD1775] (first compound max 1 µM, partner max 1 µM) | -0.0143 | -0.0451 | -0.0156 | -0.0473 | -0.0214 | -0.0212 | -0.0203 | 0.36 | 0.473 | 0.713 | 0.294 | 0.899 | 0.626 | 0.595 | 0.769 | 0.693 | 0.92 | 0.381 | 0.505 | 0.191
8 | CC1(C)CCC(CN2CCN(c3ccc(C(=O)NS(=O)(=O)c4ccc(NCC5CCOCC5)c([N+](=O)[O-])c4)c(Oc4cnc5[nH]ccc5c4)c3)CC2)=C(c2ccc(Cl)cc2)C1 [Venetoclax] + CCN(CCO)CCCOc1ccc2c(Nc3cc(CC(=O)Nc4cccc(F)c4)[nH]n3)ncnc2c1 [AZD2811] (first compound max 1 µM, 7x7, partner max 1 µM) | -0.0555 | -0.0235 | 0.0266 | -0.053 | 0.0208 | -0.035 | -0.0241 | 0.157 | 0.156 | 0.378 | 0.612 | 0.766 | 0.23 | 0.201 | 0.297 | 0.806 | 0.73 | 0.153 | 0.371 | 0.178
9 | CC1(C)CCC(CN2CCN(c3ccc(C(=O)NS(=O)(=O)c4ccc(NCC5CCOCC5)c([N+](=O)[O-])c4)c(Oc4cnc5[nH]ccc5c4)c3)CC2)=C(c2ccc(Cl)cc2)C1 [Venetoclax] + CN(C)CCCOc1ccc(-c2ccc3ncc4c(c3c2)n(C2CCOCC2)c(=O)n4C)cn1 [AZD0156] (first compound max 1 µM, 7x7, partner max 1 µM) | -0.0611 | -0.0685 | -0.0069 | -0.0426 | -0.0151 | -0.0283 | 0.0022 | 0.0973 | 0.136 | 0.338 | 0.132 | 0.766 | 0.217 | 0.267 | 0.225 | 0.235 | 0.178 | 0.208 | 0.216 | 0.145
10 | CC1(C)CCC(CN2CCN(c3ccc(C(=O)NS(=O)(=O)c4ccc(NCC5CCOCC5)c([N+](=O)[O-])c4)c(Oc4cnc5[nH]ccc5c4)c3)CC2)=C(c2ccc(Cl)cc2)C1 [Venetoclax] + COc1cc(Nc2ncc3c(n2)-c2ccc(Cl)cc2C(c2c(F)cccc2OC)=NC3)ccc1C(=O)O [Alisertib] (first compound max 1 µM, 7x7, partner max 10 µM) | -0.0453 | 0.0579 | -0.0103 | -0.0132 | -0.0542 | 0.0023 | -0.0525 | 0.656 | 0.438 | 0.477 | 0.628 | 0.942 | 0.669 | 0.58 | 0.327 | 0.939 | 0.948 | 0.311 | 0.466 | 0.0652
11 | CC1(C)CCC(CN2CCN(c3ccc(C(=O)NS(=O)(=O)c4ccc(NCC5CCOCC5)c([N+](=O)[O-])c4)c(Oc4cnc5[nH]ccc5c4)c3)CC2)=C(c2ccc(Cl)cc2)C1 [Venetoclax] + C[C@@H]1COCCN1C2=NC(=NC(=C2)C3(CC3)[S@](=N)(=O)C)C4=C5C=CNC5=NC=C4 [AZD6738] (first compound max 1 µM, 7x7, partner max 10 µM) | -0.0391 | -0.0262 | -0.0114 | -0.0429 | 0.0005 | -0.0357 | 0.0103 | 0.411 | 0.571 | 0.729 | 0.665 | 0.926 | 0.494 | 0.668 | 0.798 | 0.791 | 0.7 | 0.407 | 0.674 | 0.452
12 | CC1(C)CCC(CN2CCN(c3ccc(C(=O)NS(=O)(=O)c4ccc(NCC5CCOCC5)c([N+](=O)[O-])c4)c(Oc4cnc5[nH]ccc5c4)c3)CC2)=C(c2ccc(Cl)cc2)C1 [Venetoclax] + C[C@@H](Nc1cc(F)cc(F)c1)c1cc(C(=O)N(C)C)cc2c(=O)cc(N3CCOCC3)oc12 [AZD8186] (first compound max 1 µM, 7x7, partner max 3 µM) | -0.0203 | -0.0603 | -0.0157 | -0.0585 | -0.0201 | -0.0281 | 0.0028 | 0.152 | 0.146 | 0.416 | 0.175 | 0.507 | 0.143 | 0.454 | 0.154 | 0.232 | 0.504 | 0.262 | 0.109 | 0.0586
